This note sets out measurements from patent US20170327559A1, “VIRAL INACTIVATION USING IMPROVED SOLVENT-DETERGENT METHOD” (Baxalta Incorporated, priority 2010, published 2017).

Series [1] can be described thus: Temperature effects on solvent/detergent components before and after 0.2 μm filtration (HPLC). In kind it is physicochemical. The method, then: In order to evaluate the influence of a lower temperature on the mixing time of solvent/detergent components, 50 mL solvent/detergent solutions were prepared by adding 0.3% (v/v) TNBP, 1.0% (v/v) polyoxyethylene octyl phenyl ether (TRITON® X-100) and 0.3% (v/v) polysorbate 80 sorbitan monooleate (TWEEN® 80) and stirring at 4±2° C. for 10, 20, or 30 minutes. As the solvent/detergent solution already contained 0.1% polysorbate 80 sorbitan monooleate (TWEEN® 80), the final concentration for this compound was of 0.4%. The concentration of TNBP and polyoxyethylene octyl phenyl ether (TRITON® X-100) were determined simultaneously by using C18 RP-HPLC with a refractive index detector (RID). The concentration of polysorbate 80 sorbitan monooleate (TWEEN® 80) was determined by C1 RP-HPLC using an evaporative light scattering detector (ELSD). For the HPLC analysis of TNBP and polyoxyethylene octyl phenyl ether (TRITON® X-100), an isocratic elution is employed using 68% methanol in water. In the assay of polysorbate 80 sorbitan monooleate (TWEEN® 80), a gradient elution from 60% methanol in water to 100% methanol is used.
To evaluate the impact of the temperature toward a potential retention of solvent/detergent conponents during the filtration step, 50 mL solvent/detergent solutions were prepared by adding 0.3% (v/v) TNBP, 1.0% (v/v) polyoxyethylene octyl phenyl ether (TRITON® X-100) and 0.3% (v/v) polysorbate 80 sorbitan monooleate (TWEEN® 80), stirring at 4±2° C. for 30 minutes and the concentration of each component was measured as described above. The solvent/detergent solutions were then processed under three different temperature conditions: 22.5° C. with a warm up period of about 8 hours; 22.5° C. with a warm up period of about 2 hours; and 4° C. without any warm-up or preheating step. At the end of the incubation period, samples were filtrated through a 0.2 μm filter and TNBP, polyoxyethylene octyl phenyl ether (TRITON® X-100) and polysorbate 80 sorbitan monooleate (TWEEN® 80) concentrations were measured by HPLC.

Several values for one entry are separate records, joined by “and”; a condition that tells them apart may be missing. Equal values may be shown once. Read-outs that look alike come from different tables or passages of the source.

Take “polyoxyethylene octyl phenyl ether [TRITON X-100]”: the S/D component concentration was 1.2% and 1.1%; the “S/D component concentration, Mean” value was 1.2 ± 0.06%. Besides, in series [1], the “S/D component concentration after 0.2 μm filtration” value was 1.00% and 0.90% and 1.10%; the “S/D component concentration after 0.2 μm filtration, Mean” value is 1.03% and 0.97% and 1.00%; the “S/D component concentration before 0.2 μm filtration” value was 0.80% and 1.00%; the “S/D component concentration before 0.2 μm filtration, Mean” value is 1.00% and 0.93%.
Regarding “polysorbate 80 sorbitan monooleate [Tween 80]”, the “S/D component concentration after 0.2 μm filtration, Mean” value amounted to 0.41% in series [1] (4° C./2 H, n = 3); 0.41% in series [1] (22.5° C./2 H, n = 3); 0.39% in series [1] (22.5° C./8 H, n = 3). Besides, the “S/D component concentration before 0.2 μm filtration, Mean” value in series [1] (4° C./2 H, n = 3) turned out to be 0.40%; in series [1] (22.5° C./2 H, n = 3), 0.41%; in series [1] (22.5° C./8 H, n = 3) it was 0.38%. For the same substance, the “S/D component concentration after 0.2 μm filtration” value in series [1] (4° C./2 H, runs 1-3) is 0.40% and 0.41%; in series [1] (22.5° C./2 H, runs 1-3) it was 0.38% and 0.44% and 0.41%; in series [1] (22.5° C./8 H, runs 1-3), 0.40% and 0.39% and 0.37%. Moreover, the “S/D component concentration before 0.2 μm filtration” value in series [1] (4° C./2 H, runs 1-3) was 0.38% and 0.40% and 0.42%; in series [1] (22.5° C./2 H, runs 1-3) it was 0.41% and 0.42%; in series [1] (22.5° C./8 H, runs 1-3), 0.33% and 0.39% and 0.42%. Further, the “S/D component concentration, Mean” value (mean of 10, 20, 30 min stirring at 4±2° C.) was found to be 0.42 ± 0.02%. The S/D component concentration is, setting by setting: (stirring at 4±2° C. for 10 min) 0.42%; (stirring at 4±2° C. for 20 min) 0.40%; (stirring at 4±2° C. for 30 min) 0.44%.
